This is an account of results in patent US20250042916A1 (ACONCAGUA BIO, INC., priority 2023, published 2025).

Some results are limits rather than exact numbers.

Sequence of human calcitonin receptor (CTR) and RAMP3 (AMY3) in COS-7 cells (P30988 25-474): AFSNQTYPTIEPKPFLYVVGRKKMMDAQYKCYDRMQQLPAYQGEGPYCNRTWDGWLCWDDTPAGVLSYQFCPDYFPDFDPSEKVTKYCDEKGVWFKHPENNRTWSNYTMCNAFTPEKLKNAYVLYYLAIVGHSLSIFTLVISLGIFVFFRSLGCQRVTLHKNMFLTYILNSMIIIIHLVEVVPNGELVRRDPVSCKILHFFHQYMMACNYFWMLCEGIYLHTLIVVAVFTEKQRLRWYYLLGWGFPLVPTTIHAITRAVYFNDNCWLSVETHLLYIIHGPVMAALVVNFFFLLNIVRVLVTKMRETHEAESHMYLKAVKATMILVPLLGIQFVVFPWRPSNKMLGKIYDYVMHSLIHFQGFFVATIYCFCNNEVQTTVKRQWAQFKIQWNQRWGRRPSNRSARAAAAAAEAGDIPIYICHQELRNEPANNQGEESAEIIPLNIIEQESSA
Sequence of human calcitonin receptor (CTR) and RAMP3 (AMY3) in COS-7 cells (O60896 24-148): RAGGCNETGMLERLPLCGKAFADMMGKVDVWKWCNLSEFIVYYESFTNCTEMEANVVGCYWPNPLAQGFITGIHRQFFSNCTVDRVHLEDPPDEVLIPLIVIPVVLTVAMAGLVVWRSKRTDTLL

The target of the experiment is human calcitonin receptor (CTR) and RAMP3 (AMY3) in COS-7 cells (Homo sapiens, UniProt O60896+P30988). Briefly: Amylin Receptor cAMP Assay I. The format is cell-based. Conditions: values marked *: Amylin Receptor cAMP Assay I; COS-7/AMY3 cells; read-out: Amylin Receptor cAMP Stimulation Activity: EC50. The text has this:
Amylin Receptor cAMP Assay I
AMYRs are heterodimers of the class B calcitonin (CT) G-protein-coupled receptor (CTR) and receptor activity-modifying proteins (RAMPs). All three RAMPs can interact with the CTR and form AMY1, AMY2, AMY3 with RAMP1, RAMP2 and RAMP3, respectively. Like other class B1 GPCRs, the CT receptor family is canonically coupled to Gs-mediated cAMP production, and measurement of cAMP accumulation has been the primary assay used to determine peptide selectivity and potency.
To optimize functional activity directed toward Gas coupling, COS-7 cells were stably transfected with human calcitonin receptor (CTR) and RAMP3, simultaneously. 100× concentration of compound working solutions were prepared (Agilent Technologies Bravo) with 4-fold serial dilution in 384-well Echo LDV plate (Labcyte, Cat #LP-0200). 100 nL/well 100× concentration of compound working solutions were moved to 384-well white low volume plate (Greiner, Cat #784075) using Labcyte ECHO550. 1×10^5 cells/mL COS-7/CTR or COS-7/AMY3 (HD Biosciences) cell suspensions prepared with assay buffer [DPBS containing 0.5 mM IBMX (Sigma, Cat #15879) and 0.1% BSA (GENVIEW, Cat #FA016-100 g)], 10 μL cell suspensions were added to each well of previous generated assay plate which already contains 100 nL compound at 100× concentration using ThermoFisher Multidrop Combi (1000 cells/well). Seal the plate and incubate at 37° C. with 5% CO2 for 30 min.
After incubation, the cAMP assay signal was generated using cAMP Hi-range Kit (Cisbio). 5 μL cAMP-d2 working solution was added to each well, followed by 5 μL Anti-cAMP antibody-cryptate working solution which was added to each well using ThermoFisher Multidrop Combi. The samples were then incubated at room temperature for 1 hour protected from light. the fluorescence was read at 665 and 615 nm with Reader PerkinElmer EnVision.
Consider `Cc1nnc(-c2c(CCc3ccc(F)cc3)nc(CC(C)C)c(C(N)=O)c2-c2cc3cccc(C#N)c3s2)o1` [Compound 138, 4-(7-cyano-1-benzothiophen-2-yl)-6-[2-(p-fluorophenyl)ethyl]-2-isobutyl-5-(5-methyl-1,3,4-oxadiazol-2-yl)nicotinamide], for which the EC50 came to 2260 nM.
For the compound `Cc1nnc(-c2c(CCc3ccc(F)cc3)nc(CC(C)C)c(C(N)=O)c2-c2cc3c(N)cccc3s2)o1` [Compound 139, 4-(4-aminobenzo[b]thiophen-2-yl)-6-(4-fluorophenethyl)-2-isobutyl-5-(5-methyl-1,3,4-oxadiazol-2-yl)nicotinamide], the EC50 came out at 9930 nM.
Regarding `Cc1nnc(-c2c(CCc3ccc(F)cc3)nc(CC(C)C)c(C(N)=O)c2-c2ccc(CN[C@@H]3CCc4ccccc43)s2)o1` [Compound 140, 4-(5-{[(R)-1-indanylamino]methyl}-2-thienyl)-6-[2-(p-fluorophenyl)ethyl]-2-isobutyl-5-(5-methyl-1,3,4-oxadiazol-2-yl)nicotinamide], the concentration giving a half-maximal response (EC50) stood at 177 nM.
Consider `Cc1nnc(-c2c(CCc3ccc(F)cc3)nc(CC(C)C)c(C(N)=O)c2-c2ccc(CNC(=O)c3ccc(F)c(F)c3)s2)o1` [Compound 141], for which the 50% effective concentration (EC50) stood at 50 nM.
In the case of `Cc1nnc(-c2c(CCc3ccc(F)cc3)nc(CC(C)C)c(C(N)=O)c2-c2ccc3c(c2)CCC3NCc2ccc(F)c(F)c2)o1` (stereo not drawn) [Compound 143, 4-(1-{[(3,4-difluorophenyl)methyl]amino}-5-indanyl)-6-[2-(p-fluorophenyl)ethyl]-2-isobutyl-5-(5-methyl-1,3,4-oxadiazol-2-yl)nicotinamide] it was 374 nM.
Take `Cc1nnc(-c2c(CCc3ccc(F)cc3)nc(CC(C)C)c(C(N)=O)c2CCOC(=O)NCc2ccc(F)c(F)c2)o1` [Compound 145]: the EC50 was 6290 nM.
As for `Cc1nnc(-c2c(OCc3ccc(F)cc3)nc(CC(C)C)c(C(N)=O)c2-c2ccc(C(=O)NCc3ccc(F)c(F)c3)s2)o1` [Compound 146, 4-[5-[(3,4-difluorophenyl)methylcarbamoyl]-2-thienyl]-6-[(4-fluorophenyl)methoxy]-2-isobutyl-5-(5-methyl-1,3,4-oxadiazol-2-yl)pyridine-3-carboxamide], the EC50 stood at 973 nM.
For the compound `CC(C)Cc1nc(CCc2ccc(F)cc2)c(-c2nnc(C(C)C)o2)c(-c2ccc(C(=O)NCc3ccc(F)c(F)c3)s2)c1C(N)=O` [Compound 147, N-(3,4-difluorophenyl)methyl-5-{5-carbamoyl-2-[2-(p-fluorophenyl)ethyl]-6-isobutyl-3-(5-isopropyl-1,3,4-oxadiazol-2-yl)-4-pyridyl}-2-thenamide], the concentration for a half-maximal effect (EC50) was 2.3 nM.
Turning to `CC(C)Cc1nc(CCc2ccc(F)cc2)c(-c2nnc(C(F)(F)F)o2)c(-c2ccc(C(=O)NCc3ccc(F)c(F)c3)s2)c1C(N)=O` [Compound 148, N-(3,4-difluorophenyl)methyl-5-{5-carbamoyl-2-[2-(p-fluorophenyl)ethyl]-6-isobutyl-3-[5-(trifluoromethyl)-1,3,4-oxadiazol-2-yl]-4-pyridyl}-2-thenamide], the EC50 is 208 nM.
For the compound `Cc1nnc(-c2c(CCc3ccc(F)cc3)nc(CC(C)C)c(C(N)=O)c2-c2ccc(C(=O)NCc3ccc(F)c(F)c3)s2)s1` [Compound 149, N-(3,4-difluorophenyl)methyl-5-{5-carbamoyl-2-[2-(p-fluorophenyl)ethyl]-6-isobutyl-3-(5-methyl-1,3,4-thiadiazol-2-yl)-4-pyridyl}-2-thenamide], the EC50 came to 19.1 nM.
In the case of `Cc1cnc(-c2c(CCc3ccc(F)cc3)nc(CC(C)C)c(C(N)=O)c2-c2ccc(C(=O)NCc3ccc(F)c(F)c3)s2)o1` [Compound 150, N-(3,4-difluorophenyl)methyl-5-{5-carbamoyl-2-[2-(p-fluorophenyl)ethyl]-6-isobutyl-3-(5-methyl-1,3-oxazol-2-yl)-4-pyridyl}-2-thenamide] it was 3.5 nM; in that of `Cc1cc(-c2c(CCc3ccc(F)cc3)nc(CC(C)C)c(C(N)=O)c2-c2ccc(C(=O)NCc3ccc(F)c(F)c3)s2)on1` [Compound 151, N-(3,4-difluorophenyl)methyl-5-{5-carbamoyl-2-[2-(p-fluorophenyl)ethyl]-6-isobutyl-3-(3-methyl-5-isoxazolyl)-4-pyridyl}-2-thenamide], 134 nM.
Under `Cc1ncc(-c2c(CCc3ccc(F)cc3)nc(CC(C)C)c(C(N)=O)c2-c2ccc(C(=O)NCc3ccc(F)c(F)c3)s2)o1` [Compound 152, N-(3,4-difluorophenyl)methyl-5-{5-carbamoyl-2-[2-(p-fluorophenyl)ethyl]-6-isobutyl-3-(2-methyl-1,3-oxazol-5-yl)-4-pyridyl}-2-thenamide] stands 11.5 nM; under `Cc1ncoc1-c1c(CCc2ccc(F)cc2)nc(CC(C)C)c(C(N)=O)c1-c1ccc(C(=O)NCc2ccc(F)c(F)c2)s1` [Compound 153, N-(3,4-difluorophenyl)methyl-5-{5-carbamoyl-2-[2-(p-fluorophenyl)ethyl]-6-isobutyl-3-(4-methyl-1,3-oxazol-5-yl)-4-pyridyl}-2-thenamide], 12 nM.
Take `Cc1nc(-c2c(CCc3ccc(F)cc3)nc(CC(C)C)c(C(N)=O)c2-c2ccc(C(=O)NCc3ccc(F)c(F)c3)s2)no1` [Compound 154, N-(3,4-difluorophenyl)methyl-5-{5-carbamoyl-2-[2-(p-fluorophenyl)ethyl]-6-isobutyl-3-(5-methyl-1,2,4-oxadiazol-3-yl)-4-pyridyl}-2-thenamide]: the EC50 stood at 68.7 nM.
Consider `Cc1nnc(-c2c(CCc3ccc(F)cc3)nc(CC(C)C)c(S(C)(=O)=O)c2-c2ccc(C(=O)NCc3ccc(F)c(F)c3)s2)o1` [Compound 155], for which the half-maximal effective concentration (EC50) is above 1000 nM.
For `Cc1cc(CNc2nccc3cc(-c4c(C(N)=O)c(CC(C)C)nc(CCc5ccc(F)cc5)c4-c4nnc(C)o4)sc23)ccn1` [Compound 156], the concentration giving a half-maximal response (EC50) was 1200 nM.
Under `Cc1ccc(CNc2nccc3cc(-c4c(C(N)=O)c(CC(C)C)nc(CCc5ccc(F)cc5)c4-c4nnc(C)o4)sc23)cn1` [Compound 157] stands 625 nM; under `Cc1nnc(-c2c(NCc3ccc(F)cc3)nc(CC(C)C)c(C(N)=O)c2-c2ccc(C(=O)NCc3ccc(F)c(F)c3)s2)o1` [Compound 158], 120 nM; under `CC(C)Cc1nc(CCc2ccc(F)cc2)c(-c2cnn(C)c2)c(-c2ccc(C(=O)NCc3ccc(F)c(F)c3)s2)c1C(N)=O` [Compound 159], 91 nM.
In the case of `Cc1cc(-c2c(CCc3ccc(F)cc3)nc(CC(C)C)c(C(N)=O)c2-c2ccc(C(=O)NCc3ccc(F)c(F)c3)s2)ccn1` [Compound 160] it was 26 nM.
Under `Cc1nnc(-c2c(CCc3ccc(F)cc3)nc(CC(C)C)c(C(N)=O)c2-c2cc3ccnc(N[C@@H]4CCc5ncccc54)c3s2)o1` [Compound 161] stands 13 nM; under `Cc1nnc(-c2c(CCc3ccc(F)cc3)nc(CC(C)C)c(C(N)=O)c2-c2ccc3c(NCc4ccc(F)c(F)c4)nccc3c2)o1` [Compound 162], 74 nM.
With `Cc1nnc(-c2c(COc3ccc(F)cc3)nc(CC(C)C)c(C(N)=O)c2-c2cc3ccnc(NCc4ccc(F)c(F)c4)c3s2)o1` [Compound 163], the EC50 was 40 nM.
Turning to `Cc1nnc(-c2c(COc3ccc(F)cc3)nc(CC(C)C)c(C(N)=O)c2-c2ccc(C(=O)NCc3ccc(F)c(F)c3)s2)o1` [Compound 164], the EC50 was 325 nM.
Take `CO[C@@H]1CCCN(C(=O)c2ccc(-c3c(C(N)=O)c(CC(C)C)nc(CCc4ccc(F)cc4)c3-c3nnc(C)o3)s2)C1` [Compound 165]: the EC50 is above 1000 nM.
Turning to `CO[C@H]1CCCN(C(=O)c2ccc(-c3c(C(N)=O)c(CC(C)C)nc(CCc4ccc(F)cc4)c3-c3nnc(C)o3)s2)C1` [Compound 166], the EC50 is above 1000 nM.
Regarding `Cc1nnc(-c2c(CCc3ccc(F)cc3)nc(OC(C)C)c(C(N)=O)c2-c2ccc(C(=O)NCc3ccc(F)c(F)c3)s2)o1` [Compound 167, 4-(5-((3,4-difluorobenzyl)carbamoyl)thiophen-2-yl)-6-(4-fluorophenethyl)-2-isopropoxy-5-(5-methyl-1,3,4-oxadiazol-2-yl)nicotinamide], the half-maximal effective concentration (EC50) is 336 nM.
As to `Cc1nnc(-c2c(CCc3ccc(F)cc3)nc(NC(C)C)c(C(N)=O)c2-c2ccc(C(=O)NCc3ccc(F)c(F)c3)s2)o1` [Compound 168, 4-(5-((3,4-difluorobenzyl)carbamoyl)thiophen-2-yl)-6-(4-fluorophenethyl)-2-(isopropylamino)-5-(5-methyl-1,3,4-oxadiazol-2-yl)nicotinamide], the EC50 amounted to 540 nM.
Consider `Cc1nc(-c2c(CCc3ccc(F)cc3)nc(CC(C)C)c(C(N)=O)c2-c2ccc(C(=O)NCc3ccc(F)c(F)c3)s2)co1` [Compound 169, 4-(5-((3,4-difluorobenzyl)carbamoyl)thiophen-2-yl)-6-(4-fluorophenethyl)-2-isobutyl-5-(2-methyloxazol-4-yl)nicotinamide], for which the half-maximal effective concentration (EC50) was determined as 122 nM.
